Data reported in ChEMBL document CHEMBL1201862, “PubChem BioAssay data set” (2004).
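1) Cells in 96-well plates. 2) Compound, 48 h, 5 concentrations. 3) Linear interpolation between surrounding doses. 4) Unreached endpoint = highest concentration. Here, GI50 denotes the concentration required for 50% inhibition of growth.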 Calls of active or inactive are those of the source. No stated cut-off is given here; in the data, active = GI50 up to about 1.1 µM and inactive = higher.

Legend:
Assay in all cases: NCI anticancer screen, dose series, 48 h
ACHN = tested on: ACHN
BT-549 = tested on: BT-549
CAKI-1 = tested on: CAKI-1
EKVX = tested on: EKVX
HL-60 = tested on: HL-60
HT-29 = tested on: HT-29
Hs-578T = tested on: Hs-578T
NCI-H226 = tested on: NCI-H226
OVCAR-8 = tested on: OVCAR-8
PC-3 = tested on: PC-3
SF-295 = tested on: SF-295
SK-MEL-5 = tested on: SK-MEL-5
SN12C = tested on: SN12C
HCT-15 = tested on: HCT-15
KM12 = tested on: KM12
OVCAR-4 = tested on: OVCAR-4
SNB-19 = tested on: SNB-19
SNB-75 = tested on: SNB-75
LOX IMVI = tested on: LOX IMVI

SMILES	GI50 (ACHN)	GI50 (BT-549)	GI50 (CAKI-1)	GI50 (EKVX)	GI50 (HL-60)	GI50 (HT-29)	GI50 (Hs-578T)	GI50 (NCI-H226)	GI50 (OVCAR-8)	GI50 (PC-3)	GI50 (SF-295)	GI50 (SK-MEL-5)	GI50 (SN12C)	GI50 (HCT-15)	GI50 (KM12)	GI50 (OVCAR-4)	GI50 (SNB-19)	GI50 (SNB-75)	GI50 (LOX IMVI)
COc1c(-c2ccc(F)cc2)oc2c(CC(=O)O)cccc2c1=O	> 100 µM (inactive)	> 100 µM (inactive)	22.3 µM (inactive)	> 100 µM (inactive)	> 100 µM (inactive)	> 100 µM (inactive)	> 100 µM (inactive)	> 100 µM (inactive)	> 100 µM (inactive)	> 100 µM (inactive)	> 100 µM (inactive)	> 100 µM (inactive)	> 100 µM (inactive)	–	–	–	–	–	–
COC(=O)CCC1(C)C2CCC1(C)/C(=N/O)C2 (configuration not stated)	> 100 µM (inactive)	> 100 µM (inactive)	> 100 µM (inactive)	> 100 µM (inactive)	–	> 100 µM (inactive)	> 100 µM (inactive)	> 100 µM (inactive)	> 100 µM (inactive)	> 100 µM (inactive)	> 100 µM (inactive)	> 100 µM (inactive)	> 100 µM (inactive)	> 100 µM	> 100 µM (inactive)	> 100 µM (inactive)	> 100 µM (inactive)	> 100 µM (inactive)	–
Nc1ccc(/N=N/c2c(S(=O)(=O)O)cc3ccccc3c2S(=O)(=O)O)cc1	> 100 µM (inactive)	> 100 µM (inactive)	> 100 µM (inactive)	> 100 µM (inactive)	–	> 100 µM (inactive)	> 100 µM (inactive)	> 100 µM (inactive)	> 100 µM (inactive)	> 100 µM (inactive)	> 100 µM (inactive)	> 100 µM (inactive)	> 100 µM (inactive)	> 100 µM	> 100 µM (inactive)	> 100 µM (inactive)	> 100 µM (inactive)	> 100 µM (inactive)	> 100 µM (inactive)
CCC#CCCCCCCCCC(F)C(=O)O (configuration not stated)	> 100 µM (inactive)	–	> 100 µM (inactive)	> 100 µM (inactive)	> 100 µM (inactive)	> 100 µM (inactive)	> 100 µM (inactive)	> 100 µM (inactive)	> 100 µM (inactive)	> 100 µM (inactive)	> 100 µM (inactive)	> 100 µM (inactive)	> 100 µM (inactive)	> 100 µM	> 100 µM (inactive)	> 100 µM (inactive)	> 100 µM (inactive)	> 100 µM (inactive)	> 100 µM (inactive)
CC1=NN(c2cccc(Cl)c2)C2(C1=C/C=C/c1ccccc1)C(Cl)C(=O)N2c1nc2ccccc2s1 (configuration not stated)	4.76 µM (inactive)	32.1 µM (inactive)	9.4 µM (inactive)	40.2 µM (inactive)	3.08 µM (inactive)	25.7 µM (inactive)	21 µM (inactive)	27.4 µM (inactive)	17.9 µM (inactive)	19.3 µM (inactive)	11 µM (inactive)	22.9 µM (inactive)	34.6 µM (inactive)	29.6 µM	23.8 µM (inactive)	35.7 µM (inactive)	60.8 µM (inactive)	–	13.1 µM (inactive)
Cc1nc2c(sc(=S)n2-c2ccccc2)c2nc3ncccc3n12	> 100 µM (inactive)	> 100 µM (inactive)	> 100 µM (inactive)	> 100 µM (inactive)	> 100 µM (inactive)	> 100 µM (inactive)	> 100 µM (inactive)	–	> 100 µM (inactive)	> 100 µM (inactive)	77.4 µM (inactive)	> 100 µM (inactive)	46.2 µM (inactive)	> 100 µM	> 100 µM (inactive)	–	54.5 µM (inactive)	23.6 µM (inactive)	> 100 µM (inactive)
COc1ccc2c(-c3ccc(OCCN(C)C)cc3)c(Oc3ccccc3)c(=O)oc2c1	10.2 µM (inactive)	11 µM (inactive)	8.67 µM (inactive)	11.1 µM (inactive)	–	7.59 µM (inactive)	6.18 µM (inactive)	16.1 µM (inactive)	10.5 µM (inactive)	6.12 µM (inactive)	3.17 µM (inactive)	2.37 µM (inactive)	6.71 µM (inactive)	3.48 µM	4.78 µM (inactive)	16.9 µM (inactive)	5.86 µM (inactive)	6.95 µM (inactive)	3.74 µM (inactive)
COc1cccc(C2c3cc4c(cc3OC(C)(N3CCCC3)C2C)OCO4)c1 (configuration not stated)	17.6 µM (inactive)	–	17.1 µM (inactive)	24.6 µM (inactive)	23.1 µM (inactive)	3.77 µM (inactive)	3.07 µM (inactive)	6.4 µM (inactive)	20.9 µM (inactive)	16.3 µM (inactive)	8.83 µM (inactive)	3.92 µM (inactive)	17.2 µM (inactive)	5.35 µM	4 µM (inactive)	14.3 µM (inactive)	21.9 µM (inactive)	3.18 µM (inactive)	10.6 µM (inactive)
